From patent US20250099493A1, “PHOSPHONATES AS INHIBITORS OF ENPP1 AND CDNP” (STINGRAY THERAPEUTICS, INC., priority 2020, published 2025)
Where two headings read alike, the source gives them in different places.

How the values were obtained:
[1] = target: Recombinant Human ENPP-1 Protein (Homo sapiens (Human), UniProt P22413); assay: ENPP1 Inhibition Assay; assay type: biochemical
Protocol: Assay Buffer: 1 mM CaCl2), 0.2 mM ZnCl2, 50 mM Tris, pH 9.0. Substrate: 8 mM Thymidine 5′-monophosphate p-nitrophenol ester sodium salt (Sigma Cat #T4510). Enzyme: […] Recombinant Human ENPP-1 Protein (R&D Cat #6136-EN-010) in DMSO in 96-well clear assay plates.
An eight point serial dilution of drugs was prepared in 10× in assay buffer with the final assay concentrations starting at 10 μM, 3 μM, 1 μM, 0.3 μM and 0 μM. A dilution of DMSO was included as a control. The assay plate was set up as follows with each well in duplicate: 81 μL assay buffer+10 μL ENPP1 inhibitor or DMSO+5 μL Substrate+4 μL Enzyme. Both the enzyme and substrate was added to opposite sides of the well to ensure that there was no interaction until all wells had both components. The plate was then centrifuged gently for 10 seconds, followed by an incubation at 37° C. for 45 minutes. The reaction was quantified by measuring absorbance at 405 nm using an Envision plate reader.
IC50 values are determined using GraphPad Prism 5 software. The data were entered as an X-Y plot into the software as percent inhibition for each concentration of the drug. The concentration values of the drug were log transformed and the nonlinear regression was carried out using the “sigmoidal dose-response (variable slope)” option within the GraphPad software to model the data and calculate IC50 values. The IC50 values reported are the concentration of drug at which 50% inhibition was reached.

Recombinant CndP (CdnP) = Recombinant CndP (CdnP) (Mycobacterium tuberculosis (strain ATCC 25618 / H37Rv), UniProt P71615); assay: CndP Assay with BPNPP substrate; assay type: biochemical, M. tuberculosis; conditions: pH 8.0, 37° C. 45 minutes, read-out: Inhibition of CdnP IC50
Recombinant CdnP Protein = Recombinant CdnP Protein (Mycobacterium tuberculosis (strain ATCC 25618 / H37Rv), UniProt P71615); assay: CdnP HPLC Assay with C-DI-AMP Substrate; assay type: biochemical, M. tuberculosis; conditions: HPLC AMP peak area, read-out: Inhibition percentage of CdnP; for inhibition at 100 µM: 100 μM compound
[2] = substrate thymidine 5′-monophosphate p-nitrophenol ester, pH 9.0, 37° C. 45 minutes, read-out: Inhibition of ENPP1 IC50

Recombinant Human ENPP-1 Protein, sequence (P22413 99-925): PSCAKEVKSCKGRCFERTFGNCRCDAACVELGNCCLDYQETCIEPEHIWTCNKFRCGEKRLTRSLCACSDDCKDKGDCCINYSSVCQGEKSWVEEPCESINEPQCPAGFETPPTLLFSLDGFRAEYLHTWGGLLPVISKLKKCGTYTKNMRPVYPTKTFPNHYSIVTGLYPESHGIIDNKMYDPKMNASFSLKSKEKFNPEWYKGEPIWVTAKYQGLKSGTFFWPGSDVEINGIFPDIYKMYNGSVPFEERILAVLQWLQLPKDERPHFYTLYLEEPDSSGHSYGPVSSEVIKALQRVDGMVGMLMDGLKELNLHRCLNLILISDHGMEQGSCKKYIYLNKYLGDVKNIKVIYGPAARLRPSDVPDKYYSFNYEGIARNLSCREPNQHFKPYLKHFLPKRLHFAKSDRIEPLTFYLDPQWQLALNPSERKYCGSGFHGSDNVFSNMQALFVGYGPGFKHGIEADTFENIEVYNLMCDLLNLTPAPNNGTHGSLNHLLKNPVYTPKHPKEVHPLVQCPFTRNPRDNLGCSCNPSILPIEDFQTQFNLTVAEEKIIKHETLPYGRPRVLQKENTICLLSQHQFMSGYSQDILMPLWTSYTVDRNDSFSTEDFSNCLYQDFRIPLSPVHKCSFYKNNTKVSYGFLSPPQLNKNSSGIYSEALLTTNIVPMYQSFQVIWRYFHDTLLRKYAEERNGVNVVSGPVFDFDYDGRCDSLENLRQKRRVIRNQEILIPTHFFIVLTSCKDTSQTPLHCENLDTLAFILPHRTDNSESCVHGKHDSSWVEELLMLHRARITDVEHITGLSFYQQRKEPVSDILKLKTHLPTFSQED
Recombinant CndP (CdnP), sequence (P71615 whole entry, looked up): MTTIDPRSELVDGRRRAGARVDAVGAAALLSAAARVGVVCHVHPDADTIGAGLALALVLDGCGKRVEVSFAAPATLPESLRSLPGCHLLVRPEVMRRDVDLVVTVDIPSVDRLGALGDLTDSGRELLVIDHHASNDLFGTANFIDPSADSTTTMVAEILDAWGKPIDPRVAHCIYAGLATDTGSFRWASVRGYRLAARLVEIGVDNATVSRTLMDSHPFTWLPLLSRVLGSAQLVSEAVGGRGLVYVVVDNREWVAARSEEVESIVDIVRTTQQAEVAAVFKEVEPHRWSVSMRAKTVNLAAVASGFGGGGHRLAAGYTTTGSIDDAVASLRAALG
Recombinant CdnP Protein, sequence (P71615 whole entry, looked up): as above

| Compound | IC50 [1] | IC50 (Recombinant CndP (CdnP)) | IC50 [1, 2] | inhibition at 100 µM (Recombinant CdnP Protein) | inhibition at 1 µM (Recombinant CdnP Protein; 1 μM compound) | inhibition at 10 µM (Recombinant CdnP Protein; 10 μM compound) |
| --- | --- | --- | --- | --- | --- | --- |
| COc1cc2ncnc(N3CCCC(CCCP(=O)(O)O)CC3)c2cc1OC (stereo not drawn) [Compound I-5, (3-(1-(6,7-dimethoxyquinazolin-4-yl)azepan-4-yl)propyl)phosphonic acid] | 10 to 100 nM | 100 to 1000 nM | – | – | – | – |
| COc1cc2ncnc(N3CCC[C@H](CP(=O)(O)O)CC3)c2cc1OC [Compound I-2, (S)-((1-(6,7-dimethoxyquinazolin-4-yl)azepan-4-yl)methyl)phosphonic acid] | – | 100 to 1000 nM | > 100 nM | – | – | – |
| COc1cc2ncnc(-c3ccc(CP(=O)(O)O)nc3)c2cc1OC [II-1, ((5-(6,7-dimethoxyquinazolin-4-yl)pyridin-2-yl)methyl)phosphonic acid] | – | – | – | > 50% | – | – |
| COc1cc2ncnc(N3CCCC(CP(=O)(O)O)CC3)c2cc1OC (stereo not drawn) [Compound I-3, ((1-(6,7-dimethoxyquinazolin-4-yl)azepan-4-yl)methyl)phosphonic acid] | 10 to 100 nM | 100 to 1000 nM | – | – | – | – |
| COc1cc2ncnc(N3CCCC(CCP(=O)(O)O)CC3)c2cc1OC (stereo not drawn) [Compound I-4, (2-(1-(6,7-dimethoxyquinazolin-4-yl)azepan-4-yl)ethyl)phosphonic acid] | – | < 100 nM | < 10 nM | – | – | – |
| COc1cc2ncc(C#N)c(N3CCCC(CP(=O)(O)O)CC3)c2cc1OC (stereo not drawn) [Compound I-7, ((1-(3-cyano-6,7-dimethoxyquinolin-4-yl)azepan-4-yl)methyl)phosphonic acid] | – | < 100 nM | < 10 nM | – | – | – |
| COc1cccc2c(N3CCCC(CP(=O)(O)O)CC3)ncnc12 (stereo not drawn) [Compound I-9, ((1-(8-methoxyquinazolin-4-yl)azepan-4-yl)methyl)phosphonic acid] | – | 100 to 1000 nM | < 10 nM | – | – | – |
| COc1cc2ncnc(N3CCCC(CP(=O)(OCOC(=O)C(C)C)OCOC(=O)C(C)C)CC3)c2cc1OC (stereo not drawn) [Compound I-10, ((((1-(6,7-dimethoxyquinazolin-4-yl)azepan-4-yl)methyl)phosphoryl)bis(oxy))bis(methylene) bis(2-methylpropanoate)] | – | > 1000 nM | > 100 nM | – | – | – |
| COc1cccc2c(N3CCCC(CP(=O)(O)O)CC3)ccnc12 (stereo not drawn) [Compound I-8, ((1-(8-methoxyquinolin-4-yl)azepan-4-yl)methyl)phosphonic acid] | – | 100 to 1000 nM | > 100 nM | – | – | – |
| COc1cc2ncnc(N3CCCN(CP(=O)(O)O)CC3)c2cc1OC [Compound I-6, ((4-(6,7-dimethoxyquinazolin-4-yl)-1,4-diazepan-1-yl)methyl)phosphonic acid] | – | > 1000 nM | > 100 nM | – | – | – |
| COc1cc2ncnc(N3CCC[C@@H](CP(=O)(O)O)CC3)c2cc1OC [Compound I-1, (R)-((1-(6,7-dimethoxyquinazolin-4-yl)azepan-4-yl)methyl)phosphonic acid] | 10 to 100 nM | 100 to 1000 nM | – | > 50% | < 20% | > 50% |
